Laboratory results: PubChem BioAssay AID256 (DTP/NCI, 2004)
Several values for one entry are separate records, joined by “and”; a condition that tells them apart may be missing. Identical values can stand only once. Inconclusive results and toxic doses are left out.

System: CD2F1 mice, L1210 leukemia ip, survival T/C
Assay: NCI In Vivo Anticancer Drug Screen. Data for tumor model L1210 Leukemia (intraperitoneal) in CD2F1 (CDF1) mice
Conditions: higher = longer survival
Outline: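 Activity against a transplanted murine tumor was judged by comparing the compound group with a vehicle group. The outcome in the treated animals was divided by that in the controls.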

[1] = endpoint: mean survival time, dose: 100.0 mg/kg/injection, schedule: Q04DX003 (ip), vehicle: Klucel (hydroxypropylcellulose) (HPC)
[2] = endpoint: mean survival time, dose: 200.0 mg/kg/injection, schedule: Q04DX003 (ip), vehicle: Klucel (hydroxypropylcellulose) (HPC)
[3] = endpoint: mean survival time, dose: 400.0 mg/kg/injection, schedule: Q04DX003 (ip), vehicle: Klucel (hydroxypropylcellulose) (HPC)
[4] = endpoint: mean survival time, dose: 100.0 mg/kg/injection, schedule: Q01DX009 (ip), vehicle: saline with Tween-80
[5] = endpoint: mean survival time, dose: 200.0 mg/kg/injection, schedule: Q01DX009 (ip), vehicle: saline with Tween-80
[6] = endpoint: mean survival time, dose: 400.0 mg/kg/injection, schedule: Q01DX009 (ip), vehicle: saline with Tween-80
[7] = endpoint: mean survival time, dose: 100.0 mg/kg/injection, schedule: Q01DX001 (ip), vehicle: saline
[8] = endpoint: mean survival time, dose: 200.0 mg/kg/injection, schedule: Q01DX001 (ip), vehicle: saline

## CCOC(=O)c1cc(=O)c2cc(S(=O)(=O)F)ccc2[nH]1
[1]
  T/C: 103 % of control
[2]
  T/C: 103 % of control
[3]
  T/C: 100 % of control

## N#CCCOC1CCCCC1
endpoint: mean survival time, dose: 100.0 mg/kg/injection, schedule: Q04DX003 (ip), vehicle: saline with Tween-80
  T/C: 98 % of control
endpoint: mean survival time, dose: 200.0 mg/kg/injection, schedule: Q04DX003 (ip), vehicle: saline with Tween-80
  T/C: 93 % of control
endpoint: mean survival time, dose: 400.0 mg/kg/injection, schedule: Q04DX003 (ip), vehicle: saline with Tween-80
  T/C: 93 % of control

## O/N=C(\c1ccccc1)C1C(/C(=N/O)c2ccccc2)C1c1ccccc1 (stereo unspecified) (tested in a mixture with another compound)
[4]
  T/C: 95 % of control
[5]
  T/C: 95 % of control
[6]
  T/C: 90 % of control

## OC(CBr)C(O)C(O)C(O)CBr (stereo unspecified)
endpoint: mean survival time, dose: 25.0 mg/kg/injection, schedule: Q01DX009 (oral), vehicle: other
  T/C: 109 % of control
endpoint: mean survival time, dose: 50.0 mg/kg/injection, schedule: Q01DX009 (oral), vehicle: other
  T/C: 112 % of control
[7]
  T/C: 103 % of control
endpoint: mean survival time, dose: 100.0 mg/kg/injection, schedule: Q01DX009 (oral), vehicle: other
  T/C: 121 % of control
endpoint: mean survival time, dose: 100.0 mg/kg/injection, schedule: Q04DX003 (ip), vehicle: saline
  T/C: 101 % of control and 103 % of control
[8]
  T/C: 101 % of control
[2]
  T/C: 120 % of control
endpoint: mean survival time, dose: 200.0 mg/kg/injection, schedule: Q04DX003 (ip), vehicle: saline
  T/C: 108 % of control
endpoint: mean survival time, dose: 237.0 mg/kg/injection, schedule: Q04DX003 (ip), vehicle: saline with Tween-80
  T/C: 94 % of control
endpoint: mean survival time, dose: 355.55 mg/kg/injection, schedule: Q04DX003 (ip), vehicle: saline with Tween-80
  T/C: 89 % of control
endpoint: mean survival time, dose: 400.0 mg/kg/injection, schedule: Q01DX001 (ip), vehicle: saline
  T/C: 106 % of control
endpoint: mean survival time, dose: 400.0 mg/kg/injection, schedule: Q01DX009 (oral), vehicle: other
  T/C: 113 % of control
endpoint: mean survival time, dose: 400.0 mg/kg/injection, schedule: Q04DX003 (ip), vehicle: saline
  T/C: 101 % of control and 108 % of control
endpoint: mean survival time, dose: 533.33 mg/kg/injection, schedule: Q04DX003 (ip), vehicle: saline with Tween-80
  T/C: 99 % of control
endpoint: mean survival time, dose: 800.0 mg/kg/injection, schedule: Q04DX003 (ip), vehicle: saline with Tween-80
  T/C: 94 % of control
endpoint: mean survival time, dose: 800.0 mg/kg/injection, schedule: Q04DX003 (ip), vehicle: saline
  T/C: 116 % of control
endpoint: mean survival time, dose: 1200.0 mg/kg/injection, schedule: Q04DX003 (ip), vehicle: saline with Tween-80
  T/C: 98 % of control
endpoint: mean survival time, dose: 1200.0 mg/kg/injection, schedule: Q04DX003 (ip), vehicle: saline
  T/C: 114 % of control
endpoint: median survival time, dose: 8.0 mg/kg/injection, schedule: Q03HX024 (ip), vehicle: Klucel (hydroxypropylcellulose) (HPC)
  T/C: 103 % of control
endpoint: median survival time, dose: 16.0 mg/kg/injection, schedule: Q03HX008 (ip), vehicle: Klucel (hydroxypropylcellulose) (HPC)
  T/C: 108 % of control
endpoint: median survival time, dose: 16.0 mg/kg/injection, schedule: Q03HX016 (ip), vehicle: Klucel (hydroxypropylcellulose) (HPC)
  T/C: 105 % of control
endpoint: median survival time, dose: 16.0 mg/kg/injection, schedule: Q03HX024 (ip), vehicle: Klucel (hydroxypropylcellulose) (HPC)
  T/C: 106 % of control
endpoint: median survival time, dose: 32.0 mg/kg/injection, schedule: Q01DX009 (ip), vehicle: Klucel (hydroxypropylcellulose) (HPC)
  T/C: 104 % of control
endpoint: median survival time, dose: 32.0 mg/kg/injection, schedule: Q03HX008 (ip), vehicle: Klucel (hydroxypropylcellulose) (HPC)
  T/C: 115 % of control
endpoint: median survival time, dose: 32.0 mg/kg/injection, schedule: Q03HX016 (ip), vehicle: Klucel (hydroxypropylcellulose) (HPC)
  T/C: 103 % of control
endpoint: median survival time, dose: 32.0 mg/kg/injection, schedule: Q03HX024 (ip), vehicle: Klucel (hydroxypropylcellulose) (HPC)
  T/C: 109 % of control
endpoint: median survival time, dose: 64.0 mg/kg/injection, schedule: Q01DX009 (ip), vehicle: Klucel (hydroxypropylcellulose) (HPC)
  T/C: 105 % of control
endpoint: median survival time, dose: 64.0 mg/kg/injection, schedule: Q04DX003 (ip), vehicle: Klucel (hydroxypropylcellulose) (HPC)
  T/C: 109 % of control
endpoint: median survival time, dose: 120.0 mg/kg/injection, schedule: Q01DX005 (ip), vehicle: Klucel (hydroxypropylcellulose) (HPC)
  T/C: 151 % of control and 159 % of control and 163 % of control
endpoint: median survival time, dose: 128.0 mg/kg/injection, schedule: Q01DX001 (ip), vehicle: Klucel (hydroxypropylcellulose) (HPC)
  T/C: 108 % of control
endpoint: median survival time, dose: 128.0 mg/kg/injection, schedule: Q01DX009 (ip), vehicle: Klucel (hydroxypropylcellulose) (HPC)
  T/C: 86 % of control
endpoint: median survival time, dose: 128.0 mg/kg/injection, schedule: Q04DX003 (ip), vehicle: Klucel (hydroxypropylcellulose) (HPC)
  T/C: 122 % of control
endpoint: median survival time, dose: 128.0 mg/kg/injection, schedule: Q08DX002 (ip), vehicle: Klucel (hydroxypropylcellulose) (HPC)
  T/C: 109 % of control
endpoint: median survival time, dose: 180.0 mg/kg/injection, schedule: Q01DX005 (ip), vehicle: Klucel (hydroxypropylcellulose) (HPC)
  T/C: 155 % of control and 162 % of control and 164 % of control
endpoint: median survival time, dose: 200.0 mg/kg/injection, schedule: Q04DX003 (ip), vehicle: Klucel (hydroxypropylcellulose) (HPC)
  T/C: 151 % of control
endpoint: median survival time, dose: 256.0 mg/kg/injection, schedule: Q01DX001 (ip), vehicle: Klucel (hydroxypropylcellulose) (HPC)
  T/C: 112 % of control
endpoint: median survival time, dose: 256.0 mg/kg/injection, schedule: Q04DX003 (ip), vehicle: Klucel (hydroxypropylcellulose) (HPC)
  T/C: 109 % of control
endpoint: median survival time, dose: 256.0 mg/kg/injection, schedule: Q08DX002 (ip), vehicle: Klucel (hydroxypropylcellulose) (HPC)
  T/C: 114 % of control
endpoint: median survival time, dose: 270.0 mg/kg/injection, schedule: Q01DX005 (ip), vehicle: Klucel (hydroxypropylcellulose) (HPC)
  T/C: 100 % of control
endpoint: median survival time, dose: 300.0 mg/kg/injection, schedule: Q04DX003 (ip), vehicle: Klucel (hydroxypropylcellulose) (HPC)
  T/C: 155 % of control and 184 % of control and 197 % of control
endpoint: median survival time, dose: 400.0 mg/kg/injection, schedule: Q04DX003 (ip), vehicle: Klucel (hydroxypropylcellulose) (HPC)
  T/C: 195 % of control
endpoint: median survival time, dose: 512.0 mg/kg/injection, schedule: Q01DX001 (ip), vehicle: Klucel (hydroxypropylcellulose) (HPC)
  T/C: 95 % of control
endpoint: median survival time, dose: 512.0 mg/kg/injection, schedule: Q04DX003 (ip), vehicle: Klucel (hydroxypropylcellulose) (HPC)
  T/C: 112 % of control
endpoint: median survival time, dose: 512.0 mg/kg/injection, schedule: Q08DX002 (ip), vehicle: Klucel (hydroxypropylcellulose) (HPC)
  T/C: 122 % of control

## Oc1ccc(Br)cc1/C=N/c1nc(-c2ccccc2)cs1.Oc1ccc(Br)cc1/C=N/c1nc(-c2ccccc2)cs1.[Co]
[7]
  T/C: 100 % of control
[8]
  T/C: 89 % of control

## C1CC2CC1C1OC21 (stereo unspecified)
endpoint: mean survival time, dose: 100.0 mg/kg/injection, schedule: Q04DX003 (ip), vehicle: other
  T/C: 94 % of control
endpoint: mean survival time, dose: 200.0 mg/kg/injection, schedule: Q04DX003 (ip), vehicle: other
  T/C: 96 % of control
endpoint: mean survival time, dose: 400.0 mg/kg/injection, schedule: Q04DX003 (ip), vehicle: other
  T/C: 91 % of control

## OCC1OC(n2cnc3c(Nc4ccccc4)ncnc32)C(O)C1O (stereo unspecified)
endpoint: mean survival time, dose: 12.5 mg/kg/injection, schedule: Q01DX005 (ip), vehicle: distilled water + Tween-80
  T/C: 102 % of control
endpoint: mean survival time, dose: 25.0 mg/kg/injection, schedule: Q01DX005 (ip), vehicle: distilled water + Tween-80
  T/C: 100 % of control
endpoint: mean survival time, dose: 50.0 mg/kg/injection, schedule: Q01DX005 (ip), vehicle: distilled water + Tween-80
  T/C: 100 % of control
endpoint: mean survival time, dose: 100.0 mg/kg/injection, schedule: Q01DX005 (ip), vehicle: distilled water + Tween-80
  T/C: 94 % of control
endpoint: mean survival time, dose: 200.0 mg/kg/injection, schedule: Q01DX005 (ip), vehicle: distilled water + Tween-80
  T/C: 98 % of control

## Cc1ccc(C(C)(c2ccccc2)C(C)(CC=O)CC(=O)O)cc1 (stereo unspecified)
[4]
  T/C: 95 % of control
[5]
  T/C: 94 % of control
[6]
  T/C: 97 % of control

## NC(CS)=NCCc1nc2ccccc2[nH]1
endpoint: mean survival time, dose: 6.25 mg/kg/injection, schedule: Q04DX002 (ip), vehicle: saline
  T/C: 96 % of control
endpoint: mean survival time, dose: 12.5 mg/kg/injection, schedule: Q04DX002 (ip), vehicle: saline
  T/C: 93 % of control
endpoint: mean survival time, dose: 25.0 mg/kg/injection, schedule: Q04DX002 (ip), vehicle: saline
  T/C: 96 % of control and 104 % of control
endpoint: mean survival time, dose: 50.0 mg/kg/injection, schedule: Q04DX002 (ip), vehicle: saline
  T/C: 106 % of control

## CCCC(CCC)(CNC(C)=O)C1CCCCC1
endpoint: mean survival time, dose: 75.0 mg/kg/injection, schedule: Q01DX001 (ip), vehicle: saline
  T/C: 98 % of control
endpoint: mean survival time, dose: 150.0 mg/kg/injection, schedule: Q01DX001 (ip), vehicle: saline
  T/C: 88 % of control
endpoint: mean survival time, dose: 300.0 mg/kg/injection, schedule: Q01DX001 (ip), vehicle: saline
  T/C: 87 % of control

## O=C(O)c1cccc2c1C(=O)c1ccccc1C2=O
[1]
  T/C: 117 % of control
[2]
  T/C: 101 % of control
[3]
  T/C: 109 % of control
